In patent US10052330B2, “Substituted pyrido[3,4-b]pyrazines as Syk inhibitors” (HUTCHISON MEDIPHARMA LIMITED, priority 2011, dated 2018):
pIC50: −log10 of the molar value. Like-named read-outs stand apart in the source and are kept apart here.

How the values were obtained:
Syk kinase = Syk kinase (Homo sapiens, UniProt P43405); experiment: Syk kinase enzymatic assay (Kit-Tyr 2 Peptide); format: biochemical; details: 8 concentrations, 1 μM down to 0.0003 μM; upper bound of each range is 'less than'; read-out: IC50: Enzymatic Activity (Syk kinase)
RBL-2H3 cells = experiment: IgE-induced Beta-hexosaminidase secretion in RBL-2H3 cells; format: cell-based; details: Rattus norvegicus, upper bound of each range is 'less than', read-out: IC50, IgE-induced Beta-hexosaminidase secretion
[1] = RBL-2H3, RBL-2H3 cells sensitized with SPE-7, stimulated with DNP-BSA
[2] = RBL-2H3 cells sensitized with SPE-7, stimulated with DNP-BSA

SMILES | pIC50 (Syk kinase) | pIC50 (RBL-2H3 cells; [1]) | pIC50 (RBL-2H3 cells; [2])
O=C(C(F)F)N1CCO[C@H](CNc2nc(-c3ccc(N4CCOCC4)c(F)c3)cc3nccnc23)C1 [Compound 451] | 7.00 to 9.00 | 7.00 to 9.00 | –
CN(C)c1ccc(-c2cc3nccnc3c(NC[C@@H]3CN(C(=O)C(F)F)CCO3)n2)cc1 [Compound 455] | 7.00 to 9.00 | 7.00 to 9.00 | –
CN(C)c1ccc(-c2cc3nccnc3c(NC[C@@H]3CN(C(=O)C(F)F)CCO3)n2)cc1F [Compound 456] | 7.00 to 9.00 | 7.00 to 9.00 | –
O=C(C(F)F)N1CCO[C@H](CNc2nc(-c3ccc(C4CCNCC4)cc3)cc3nccnc23)C1 [Compound 458] | 7.00 to 9.00 | 6.00 to 7.00 | –
CN1CCC(c2ccc(-c3cc4nccnc4c(NC[C@@H]4CN(S(C)(=O)=O)CCO4)n3)cc2)CC1 [Compound 460] | 7.00 to 9.00 | 7.00 to 9.00 | –
CS(=O)(=O)N1CCO[C@H](CNc2nc(-c3ccc(N4CCNCC4)cc3)cc3nccnc23)C1 [Compound 462] | 7.00 to 9.00 | 6.00 to 7.00 | –
CN1CCC(c2ccc(-c3cc4nccnc4c(NC[C@@H]4CN(C(=O)C(F)F)CCO4)n3)cc2)CC1 [Compound 463] | 7.00 to 9.00 | 6.00 to 7.00 | –
CCN1CCC(c2ccc(-c3cc4nccnc4c(NC[C@@H]4CN(C(=O)C(F)F)CCO4)n3)cc2)CC1 [Compound 464] | 7.00 to 9.00 | 6.00 to 7.00 | –
CS(=O)(=O)N1CCC(c2ccc(-c3cc4nccnc4c(NC[C@@H]4CN(C(=O)C(F)F)CCO4)n3)cc2)CC1 [Compound 465] | 7.00 to 9.00 | 7.00 to 9.00 | –
CC(=O)N1CCN(c2ccc(-c3cc4nccnc4c(NC[C@H]4CN(C(=O)C(F)F)CCO4)n3)cc2)CC1 [Compound 466, (S)-1-(2-((7-(4-phenylpiperazin-1-yl)ethanone[4,3-b]pyrazin-5-ylamino)methyl)morpholino)-2,2-difluoroethanone] | 7.00 to 9.00 | – | 7.00 to 9.00
CS(=O)(=O)N1CCN(c2ccc(-c3cc4nccnc4c(NC[C@@H]4CN(C(=O)C(F)F)CCO4)n3)cc2)CC1 [Compound 467] | 7.00 to 9.00 | 7.00 to 9.00 | –
CC(=O)N1CCC(c2ccc(-c3cc4nccnc4c(NC[C@@H]4CN(S(C)(=O)=O)CCO4)n3)cc2)CC1 [Compound 468] | 7.00 to 9.00 | 6.00 to 7.00 | –
CS(=O)(=O)N1CCC(c2ccc(-c3cc4nccnc4c(NC[C@@H]4CN(S(C)(=O)=O)CCO4)n3)cc2)CC1 [Compound 469] | 7.00 to 9.00 | 7.00 to 9.00 | –
CC(=O)N1CCC(c2ccc(-c3cc4nccnc4c(NC[C@@H]4CN(C(=O)C(F)F)CCO4)n3)cc2)CC1 [Compound 470] | 7.00 to 9.00 | 7.00 to 9.00 | –
CNc1ccc(-c2cc3nccnc3c(NC[C@@H]3CNCCO3)n2)cc1C#N [Compound 473] | 7.00 to 9.00 | 7.00 to 9.00 | –
CN(C)c1ccc(-c2cc3nccnc3c(NC[C@@H]3CNCCO3)n2)cc1C#N [Compound 474] | 7.00 to 9.00 | 7.00 to 9.00 | –
OCCCOc1ccc(-c2cc3nccnc3c(NC[C@@H]3CNCCO3)n2)cc1 [Compound 476, (S)-3-(4-(5-(morpholin-2-ylmethylamino)pyrido[4,3-b]pyrazin-7-yl)phenoxy)propan-1-ol] | 7.00 to 9.00 | 7.00 to 9.00 | –
CC(=O)OCCCOc1ccc(-c2cc3nccnc3c(NC[C@@H]3CNCCO3)n2)cc1 [Compound 477, (S)-3-(4-(5-(morpholin-2-ylmethylamino)pyrido[4,3-b]pyrazin-7-yl)phenoxy)propyl acetate] | 6.00 to 7.00 | 7.00 to 9.00 | –
CCN1CCC(c2ccc(-c3cc4nccnc4c(NC[C@@H]4CN(S(C)(=O)=O)CCO4)n3)cc2)CC1 [Compound 479, (R)-7-(4-(1-ethylpiperidin-4-yl)phenyl)-N-((4-(methylsulfonyl)morpholin-2-yl)methyl)pyrido[4,3-b]pyrazin-5-amine] | 7.00 to 9.00 | – | 7.00 to 9.00
CN(CCO)c1ccc(-c2cc3nccnc3c(NCC3CNCCC3(F)F)n2)cc1 (stereo not shown) [Compound 485, 2-((4-(5-((4,4-difluoropiperidin-3-yl)methylamino)pyrido[4,3-b]pyrazin-7-yl)phenyl)(methyl)amino)ethanol] | 7.00 to 9.00 | 7.00 to 9.00 | –
